From patent publication US20260199492A1, “PSD-95 DOMAIN INHIBITOR, AND PREPARATION METHOD THEREFOR AND USE THEREOF” (SHENZHEN SALUBRIS PHARMACEUTICALS CO., LTD, priority 2023, published 2026)
Square brackets hold non-standard residues; d marks the D form. Ends that are not written are not given here. Peptide text beside a SMILES is read from it.

What was measured:
in vitro = conditions: human, plasma
Protocol: (§1) • Plasma: Human plasma is commercially available. • Reagents: DMSO (dimethyl sulfoxide), disodium hydrogen phosphate, sodium dihydrogen phosphate, methanol, formic acid, and propranolol (internal standard) are commercially available. • Instrument: AB SCIEX QTRAP 5500+.
(§2) 5 μL of stock solution (10 mM) was diluted with 495 μL of 0.05 M sodium phosphate buffer to 100 μM of dosing solution. The final concentration of tested drug for incubation was 10 μM.
(§3) A certain volume (e.g., 27 μL or 24 μL) of plasma was added into a 96-well plate. An appropriate volume of the internal standard working solution (e.g., 150 μL) was immediately added to precipitate. […] This was performed in duplicate.
(§4) Then, an appropriate amount of plasma (e.g., 27 μL or 24 μL) was added at the designed time points (e.g., 5 min, 15 min, 30 min, 60 min, and 120 min, etc.), and the parallel replicate wells were performed at each time point. […] The reaction was terminated by adding an appropriate amount of internal standard working solution (e.g., 150 μL) at the end of the time, and the mixture was mixed thoroughly.
(§5) The mixture was centrifuged at 4000 rpm for 15 min. A certain amount of the supernatant was taken, mixed with a certain amount of water, and then subjected to LC/MS/MS analysis. LC-MS detection conditions were as follows: • Chromatography column: YMC Triart C18, 50*3.0 mm, 2.1 μm. • Mobile phase: Gradient elution was performed using water (0.1% formic acid)-acetonitrile according to the table below.
(§6) The relative content of drug at each time point was calculated using the initial 0 point as 100%. The half-life of the drug was calculated by plotting “relative drug content” against “incubation time” using GraphPad Prism 5 software.

[1] = Toxicological experiment: serum UREA and CREA after 5 days of i.v. dosing; format: in vivo, SD rats; conditions: male SD rats, 30 mg/kg i.v. once daily for 5 days, serum 2 h after dosing on day 5
Protocol: The compounds of Examples 1-8 were accurately weighed into suitable EP tubes, and the vehicle (saline) was added to formulate a solution of a concentration of 15 mg/mL. The solution was filtered using a 0.2 μm filter for future use.
A total of 18 male SD rats of 6-7 weeks of age were used for test. After the animal quarantine and acclimatization period, the animals were randomly divided into 6 groups according to their body weights measured before grouping, vehicle control group (saline) as well as example compounds groups, 3 animals/group. Using the above prepared solution, the animal was administered intravenously via the tail vein at a dosage of 30 mg/kg and a dosing volume of 2 mL/kg. The dosing volume for each animal was calculated according to the body weight. Administration was performed once daily for 5 consecutive days. After 2 h of administration on day 5, the animals were deeply anesthetized by intraperitoneal injection of sodium pentobarbital. The thoracic cavity was opened, and blood was collected from the abdominal aorta into blood collection tubes containing inert separation gel and coagulant. The serum was collected by centrifugation (4000 rpm, 10 min) after about 1 h of resting. The concentrations of UREA and CREA in the serum were detected using a biochemical analyzer. The percentage change of each example compound relative to the vehicle control group was calculated using the formula: %=(Concentration of example compound−Concentration of vehicle control group)/Concentration of vehicle control group.

PDZ1-2 of PSD95 = PDZ1-2 of PSD95 (Homo sapiens, UniProt P78352); assay: Fluorescence polarization competition binding assay of PDZ1-2 with probe 5-FAM-NA-1
Chain of PDZ1-2 of PSD95 (P78352 61-249 limits assumed): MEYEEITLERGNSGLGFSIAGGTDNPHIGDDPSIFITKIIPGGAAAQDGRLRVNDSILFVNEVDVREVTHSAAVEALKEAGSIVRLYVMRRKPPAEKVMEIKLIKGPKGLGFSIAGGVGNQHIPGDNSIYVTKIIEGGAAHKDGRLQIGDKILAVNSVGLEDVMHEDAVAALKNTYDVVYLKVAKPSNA

[2] = Tissue distribution experiment of TAMRA-labeled compounds; format: in vivo; conditions: TAMRA-labeled compound, male Balb/c mice, 3 nmol/g tail vein injection, 45 min circulation, after perfusion
Protocol: The TAMRA-labeled example compounds were dissolved in saline to prepare a solution with a concentration of 600 μM/mL. A 100 μL of the above prepared solution was administered, at a dose of 3 nmol/g, to 6-week-old male Balb/c mice (18-22 g) via tail vein injection. After 45 min of circulation, the animals were deeply anesthetized by intraperitoneal injection of sodium pentobarbital. The thoracic cavity was opened, and the mice were subjected to cardiac perfusion using 0.01 M PBS (pH 7.4), and the brains, kidneys, and livers were collected at the end of perfusion. The harvested tissues were immediately placed on ice and stored at −80° C. […] The supernatant was transferred to a black 96-well plate with a clear bottom, and the TAMRA-peptide was quantified using a PHERAstar FSX plate reader (BMG LABTECH, Ortenberg, Germany). The excitation/emission wavelengths were set at 540/580 nm. The corresponding peptide concentration in the tissues was calculated using a standard curve (blank tissue mixed with TAMRA-peptide, concentration range of 0-1000 nM).

[3] = In vitro plasma stability experiment (compounds), without or with tPA; conditions: human, With tPA T1/2, human plasma, 37° C., initial concentration 10 μM, with rt-PA […]
Protocol: as §1, §2, §3, §4, §5, §6

| Compound | half-life (in vitro; With tPA T1/2) [h] | half-life (in vitro; Without tPA T1/2) [h] | CREA, percentage change compared to vehicle control group [1] [%] | UREA, percentage change compared to vehicle control group [1] [%] | IC50 (PDZ1-2 of PSD95) [µM] | Mean tissue concentration, Brain [2] [nmol/g] | half-life at 10 μM [3] [min] |
| --- | --- | --- | --- | --- | --- | --- | --- |
| CC[C@H](C)[C@H](NC(=O)[C@H](CO)NC(=O)[C@H](CO)NC(=O)[C@H](CC(C)C)NC(=O)[C@@H](CCCCN)NC(=O)[C@H](CCCNC(=N)N)NC(=O)[C@H](CCCNC(=N)N)NC(=O)[C@@H](CCCNC(=N)N)NC(=O)[C@H](CCC(=O)O)NC(=O)[C@@H](CCCNC(=N)N)NC(=O)[C@H](CCCNC(=N)N)NC(=O)[C@H](CCCCN)NC(=O)[C@H](CCCCN)NC(=O)[C@@H](CCCNC(=N)N)NC(=O)CNC(=O)[C@@H](N)Cc1ccc(O)cc1)C(=O)N[C@@H](CCC(=O)O)C(=O)N[C@@H](CO)C(=O)N[C@@H](CC(=O)O)C(=O)N[C@H](C(=O)O)C(C)C [Compound 15] (H-YG[dR]KKR[dR]E[dR]RR[dK]LSSIESDV-OH) | > 33.3 | > 33.3 | 90.8 | 88.6 | 11.3 | 4.4515 | – |
| YGRKKRRQRRRKLSSIESDV [NA-1, reference compound] | – | – | – | – | – | 2.9115 | 3.61 |
| CC[C@H](C)[C@H](NC(=O)[C@H](CO)NC(=O)[C@H](CO)NC(=O)[C@H](CC(C)C)NC(=O)[C@@H](CCCCN)NC(=O)[C@H](CCCNC(=N)N)NC(=O)[C@@H](CCCNC(=N)N)NC(=O)[C@H](CCC(N)=O)NC(=O)[C@@H](CCCNC(=N)N)NC(=O)[C@H](CCCNC(=N)N)NC(=O)[C@H](CCCCN)NC(=O)[C@H](CCCCN)NC(=O)[C@@H](CCCNC(=N)N)NC(=O)CNC(=O)[C@@H](N)Cc1ccc(O)cc1)C(=O)N[C@@H](CCC(=O)O)C(=O)N[C@@H](CO)C(=O)N[C@@H](CC(=O)O)C(=O)N[C@H](C(=O)O)C(C)C [Compound 1] (H-YG[dR]KKR[dR]Q[dR]R[dK]LSSIESDV-OH; N-terminus and C-terminus assumed) | – | – | 216.9 | 206.9 | 14.9 | 5.9220 | – |
